Laboratory results reported in patent US6783756B2, “Methods for regulating gene expression” (Abbott GmbH & Co., KG, priority 1993, dated 2004).

What was measured:
[1] = molecular target: lacR (Escherichia coli, UniProt P03023); settings: cited from earlier work
[2] = system: lacR/O; settings: eucaryotic cells; cited from earlier work
[3] = compared to Tc; cited from earlier work
[4] = system: HeLa cells; experiment: Growth behavior and morphology of HeLa cells in tetracycline-containing medium; format: cell-based, human
Procedure: The tTA inactivation studies were carried out with 1 μg of tetracycline per ml in the culture medium. […] Only at tetracycline concentrations well above 10 μg/ml were such changes observed upon prolonged incubation.

[5] = molecular target: T1, tTA (Escherichia coli, UniProt P04483); experiment: Kinetics of tetracycline action on luciferase activity in X1 cells; format: cell-based, human; settings: for Luciferase activity after addition of tetracycline, share of original value: tetracycline 1 μg/ml
T1 construct: LOCATION: 1..207; expressed in transfected cells
Procedure: FIG. 3B: Kinetics of tetracycline action. X1 cells were grown in 100 mm dishes to 80% confluency in the absence or presence (0.1 μg/ml) of tetracycline. At time 0, cells were washed with phosphate-buffered saline and split into smaller culture dishes ( 1/20th of the initial cultures per 35 mm dish). Half of the cultures remained in tetracycline-free medium (▪) and the other half were incubated in the presence of tetracycline (1 μg/ml; □). The X1 culture grown in tetracycline-containing medium was split in the same manner; one half was further incubated in the presence of tetracycline (●), whereas the other half was transferred to tetracycline-free medium (∘). At the times indicated, aliquots were harvested and examined for luciferase activity. The slight increase in luciferase activity monitored at 4 hr in the culture containing tetracycline (●) is reproducible and reflects luciferase induction during the washing step.
The time course of tetracycline action was analyzed in cultures grown in the absence or presence of tetracycline. At time 0, the antibiotic was added to the tetracycline-free cultures (final concentration, 1 μg/ml), whereas the tetracycline-containing cultures were rinsed and incubated in fresh antibiotic-free medium (FIG. 3 panel b). At various times, cells were harvested and analyzed for luciferase activity. […] A similarly rapid reduction of luciferase activity was observed when tetracycline was added to the fully active tetracycline-free system: within 8 hr activity dropped to about 10% and reached <2% of its original value after 12 hr.

T1 sequence (P04483 whole entry, added parts left off): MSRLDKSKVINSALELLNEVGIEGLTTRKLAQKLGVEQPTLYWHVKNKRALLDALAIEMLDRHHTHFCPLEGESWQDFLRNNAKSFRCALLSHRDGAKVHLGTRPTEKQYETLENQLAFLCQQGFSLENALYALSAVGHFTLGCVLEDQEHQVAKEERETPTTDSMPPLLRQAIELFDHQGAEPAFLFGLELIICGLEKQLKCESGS
lacR, sequence (P03023 whole entry): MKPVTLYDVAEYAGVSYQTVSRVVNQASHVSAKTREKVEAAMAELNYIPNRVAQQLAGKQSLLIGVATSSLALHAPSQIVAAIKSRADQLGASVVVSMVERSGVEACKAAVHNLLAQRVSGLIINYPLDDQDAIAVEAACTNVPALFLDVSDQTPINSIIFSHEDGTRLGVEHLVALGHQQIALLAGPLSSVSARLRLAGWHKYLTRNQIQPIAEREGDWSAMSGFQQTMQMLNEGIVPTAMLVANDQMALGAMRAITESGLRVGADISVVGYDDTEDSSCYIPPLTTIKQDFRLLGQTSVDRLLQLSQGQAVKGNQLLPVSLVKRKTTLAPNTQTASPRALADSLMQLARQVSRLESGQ

In the case of CC(C)S[C@@H]1O[C@H](CO)[C@H](O)[C@H](O)[C@H]1O [IPTG, isopropyl.β-D-thiogalactopyranoside], the “ka of lacR for IPTG” value [1] is given as 10^6 M^−1, the “Reduction of binding constant kRo by the inducer” value ([1]; lacR/O system) is given as 1000 fold and the “Induction by IPTG” value [2] is given as “only moderate induction”.

For Cc1c2c(c(O)c3c(O)cccc13)C(=O)[C@]1(O)C(=O)C(C(N)=O)=C(O)[C@@H](N(C)C)[C@@H]1C2 [anhydrotetracycline], the Antibiotic activity [3] is listed as “reduced antibiotic activity compared to Tc”.

For CN(C)[C@H]1C(O)=C(C(N)=O)C(=O)[C@@]2(O)C(O)=C3C(=O)c4c(O)cccc4[C@@](C)(O)[C@H]3[C@H](O)[C@@H]12 [epioxytetracycline], the Antibiotic activity [3] is given as “reduced antibiotic activity compared to Tc”.

For CN(C)[C@@H]1C(O)=C(C(N)=O)C(=O)[C@@]2(O)C(O)=C3C(=O)c4c(O)cccc4[C@@](C)(O)[C@H]3C[C@@H]12 [tetracycline], the “Tetracycline concentration at which changes in growth behavior or morphology were observed” value ([4]; prolonged incubation) was “above 10 μg/ml”, the “Change in growth behavior or morphology of HeLa cells” value ([4]; tetracycline 0.1 μg/ml) was “no change in growth behavior or morphology” and the “Luciferase activity after addition of tetracycline, share of original value” ([5]; after 12 hr) was less than 2%. The “Luciferase activity after addition of tetracycline, share of original value” ([5]; within 8 hr) was “about 10%” and the “Luciferase activity after depletion of tetracycline, share of fully induced (steady-state) level” value ([5]; within 12 hr after shift to tetracycline-free medium) was greater than 20%.
